Laboratory results taken from US12616698B2, “Methods for reducing liver fat and for treating fatty liver disorders” (Corcept Therapeutics Incorporated, priority 2021, dated 2026).
Entries after “also recorded” stand apart in the source; their conditions may differ.

Legend:
[1] = test system: patients presumed to have NASH; test: Phase 2a study: liver enzymes (ALT, AST), bilirubin, Hy's Law (eDISH plot); assay type: in vivo, human
Source text: A Phase 2a, randomized, double-blind, placebo-controlled study (ClinicalTrials.gov Identifier: NCT03823703) was begun to assess the efficacy of two dose levels of miricorilant versus placebo in reducing liver fat in patients who were presumed to have non-alcoholic steatohepatitis (NASH), that presumption based on blood tests and noninvasive measures. Written informed consent was obtained before initiating any study-mandated procedures. The full study was planned to enroll approximately 120 patients, randomized 1:1:1 to receive daily 900 mg miricorilant:600 mg miricorilant: matching placebo.
Other endpoints monitoring and assessment for safety for all study participants. Safety endpoints included the incidence of TEAEs, AEs, and SAEs; changes from Baseline in clinical laboratory tests (hematology and chemistry panels); changes from Baseline in physical examinations and vital sign measurements; changes from Baseline in ECG parameters.
Liver enzyme levels were measured in the patients.
Bilirubin and liver enzyme levels were measured in the patients at baseline. […] Bilirubin and ALT levels that combined are placed in the upper right quadrant of the graph, labelled “Hy's Law Quadrant”, indicate that the patient is at high risk of severe hepatocellular injury. The cholestasis quadrant is the location on the graph where bilirubin levels are greater than twice the ULN for bilirubin. The “Temple's Corollary” quadrant is the location on the graph where peak ALT levels are greater than 3 times the ULN for ALT, but bilirubin levels are less than twice the ULN for bilirubin.

C57BL/6J male mice = test: AMLN diet NASH mouse model, drug provided in the AMLN diet; assay type: in vivo; conditions: 60 mg/kg miricorilant in AMLN diet, 8 weeks; for Liver weight at termination of the study: vs diet-alone control (FIG. 8A)
Experimental: Two studies were conducted in C57BL/6J male mice (n=12 per group) maintained on a diet high in fat (40%), cholesterol (2%) and fructose (20%; referred to as the AMLN diet: see, e.g., Tolbol et al., World Journal of Gastroenterology, 24(2):179-194 (2018)) for 42 weeks before dosing with miricorilant was initiated. In the first study, all animals ate the AMLN diet, and received either placebo, 30 mg/kg miricorilant, or 60 mg/kg mifepristone once per day orally. […] All animals received the AMLN diet for 42 weeks prior to receiving their first dose of study drug or placebo. 4 weeks prior to receiving that first dose, a liver biopsy and histological examination of biopsy tissue was performed for each animal; 3 weeks prior to receiving that first dose, animals were randomized into three groups: control, miricorilant, or mifepristone. Only mice with fibrosis stage >=1 and steatosis score >=2 were allowed in the study and the groups were stratified according to liver col1a1 so that each study group had similar overall distributions of liver col1a1 among the mice. All animals continued on the study diet for the 3 weeks following randomization, at which time study drug or placebo administration began. All animals received their assigned drugs for 8 weeks (the 8 week in vivo study period). At 56 days (week 8) after initiation of drug administration, plasma ALT, AST, triglycerides, total cholesterol, and miricorilant levels were measured, and animals were sacrificed, liver necropsies were performed, liver histological ((NAFLD Activity Score, Fibrosis Stage, steatosis (scored using hematoxylin and eosin staining (HE)), col1a (scored using immunohistochemistry (IHC)) and Galectin-3 (IHC)) and liver biochemical measurements (including liver triglycerides and total cholesterol) were made, and liver and plasma samples were obtained for genetic ((e.g., RNA sequencing) and other analyses.
Thus, in these studies, the mice were subjected to a liver biopsy approximately 4 weeks before initiation of dosing with miricorilant and only mice with confirmed fibrosis (fibrosis stage ≥1) and steatosis (score ≥2) were entered into the study. At the end of the dosing period, blood samples were collected for determination of plasma ALT, AST, triglycerides, total cholesterol, and miricorilant. Liver samples were collected for analysis of triglycerides, total cholesterol, hydroxyproline, and histopathology. Body weight and food consumption were monitored throughout the study.
Type I collagen IHC staining Type I collagen (Southern Biotech, Cat. 1310-01) IHC were performed using standard procedures. Briefly, after antigen retrieval and blocking of endogenous peroxidase activity, slides were incubated with primary antibody. The primary antibody was detected using a polymeric HRP-linker antibody conjugate. Next, the primary antibody was visualized with DAB as chromogen. Finally, sections were counterstained in hematoxylin and cover-slipped.
Liver Galectin-3 content Galectin-3 (Biolegend, Cat. #125402) IHC was performed using standard procedures. Briefly, after antigen retrieval and blocking of endogenous peroxidase activity, slides were incubated with primary antibody. The primary antibody was detected using a linker secondary antibody followed by amplification using a polymeric HRP-linker antibody conjugate. Next, the primary antibody was visualized with DAB as chromogen. Finally, sections were counterstained in hematoxylin and cover-slipped.
Total liver col1a1 was evaluated from liver samples stained with anti-type I collagen (col1a1) (Southern Biotech, cat. 1310-01) at the end of the treatment period (typically using low power (20×) magnification). Galectin-3 content was evaluated from images of liver samples stained with anti-Galectin-3 (BioLegend, Cat. 125402) at the end of the treatment period (typically using low power (20×) magnification). Terminal relative (left) and total (right) liver type I Collagen (Col1a1) quantification was determined by morphometry. […]

For `O=c1[nH]c(=O)c(Cc2cccc(C(F)(F)F)c2)c([C@H]2CC[C@H](c3ccccc3)CC2)[nH]1` [miricorilant, (E)-6-(4-Phenylcyclohexyl)-5-(3-trifluoromethylbenzyl)-1H-pyrimidine-2,4-dione], the “Change in ALP or bilirubin levels” value ([1]; 600 or 900 mg daily) was “No significant change”, the “Hy's Law criteria (total bilirubin >2x ULN and ALT or AST >3x ULN)” value ([1]; 600 or 900 mg daily, eDISH plot FIG. 5) was “No patient in this study satisfied the criteria for Hy's Law; also recorded: no patient met Hy's Law criteria” and the “Transaminase elevations upon discontinuation of miricorilant” value ([1]; all patients) was “resolved rapidly”. The “AST Max” value ([1]; patient 208-4020, 900 mg, 30 days on treatment, baseline 45) was 772 U/L, the “ALT Max” value ([1]; patient 208-4020, 900 mg, 30 days on treatment, baseline 69) was 1378 U/L and the “AST Max” value ([1]; patient 211-4002, 900 mg, 31 days on treatment, baseline 32) was 113 U/L. The “ALT Max” value ([1]; patient 211-4002, 900 mg, 31 days on treatment, baseline 50) was 386 U/L, the “AST Max” value ([1]; patient 214-4007, 900 mg, 44 days on treatment, baseline 30) was 376 U/L and the “ALT Max” value ([1]; patient 214-4007, 900 mg, 44 days on treatment, baseline 38) was 848 U/L. For the same compound, the “AST Max” value ([1]; patient 233-4018, 600 mg, 34 days on treatment, baseline 26) was 391 U/L, the “ALT Max” value ([1]; patient 233-4018, 600 mg, 34 days on treatment, baseline 41) was 955 U/L and the “Effect on liver enzymes ALT and AST” value ([1]; patients with presumed NASH, 600 or 900 mg daily for 30-44 days) was “isolated rise; also recorded: increase”. For the same compound, the “Relative and total liver Galectin-3 content” value (C57BL/6J male mice; IHC morphometry, vs vehicle (FIG. 8C)) was “reduced”, the “Total liver type I collagen (col1a1) content” value (C57BL/6J male mice; IHC morphometry, vs vehicle, significant as total weight (FIG. 8B)) was “reduced” and the Body weight (C57BL/6J male mice; vs diet-alone control) was “significantly reduced”. The “Liver weight at termination of the study” value (C57BL/6J male mice) was “reduced” and the “Liver weight at termination of the study” value (C57BL/6J male mice; listed as Miricorilant) was “significantly reduced”.
